“Also recorded” adds a separate entry of the source.
How the values were obtained:
SMPD3 = system: SMPD3
Description: (§1) (A) A scheme of the exosome transfer from cultured primary mouse hepatocytes to primary mouse bone marrow-derived macrophages (BMDMs). […] The same number of exosomes was used.
(§2) SMPD3 plays a critical role in EV secretion and affects components of EV such as RNA.

[1] = system: primary mouse bone marrow-derived macrophages (BMDMs); assay: Exosome transfer from treated primary mouse hepatocytes to bone marrow-derived macrophages, inflammatory response (IL-6 mRNA); settings: PA 100 μM for 20 hours; exosome fraction by MagCapture kit
Description: as §1, §2

[2] = system: exosome secretion and RNA loading onto exosomes; settings: cited from earlier work
N-SMase = target: T1, N-SMase (Rattus norvegicus, UniProt O35049); settings: rat brain; non-competitive inhibitor; cited from earlier work
T1 construct: host or cells: rat brain
T1 sequence (O35049 1-655): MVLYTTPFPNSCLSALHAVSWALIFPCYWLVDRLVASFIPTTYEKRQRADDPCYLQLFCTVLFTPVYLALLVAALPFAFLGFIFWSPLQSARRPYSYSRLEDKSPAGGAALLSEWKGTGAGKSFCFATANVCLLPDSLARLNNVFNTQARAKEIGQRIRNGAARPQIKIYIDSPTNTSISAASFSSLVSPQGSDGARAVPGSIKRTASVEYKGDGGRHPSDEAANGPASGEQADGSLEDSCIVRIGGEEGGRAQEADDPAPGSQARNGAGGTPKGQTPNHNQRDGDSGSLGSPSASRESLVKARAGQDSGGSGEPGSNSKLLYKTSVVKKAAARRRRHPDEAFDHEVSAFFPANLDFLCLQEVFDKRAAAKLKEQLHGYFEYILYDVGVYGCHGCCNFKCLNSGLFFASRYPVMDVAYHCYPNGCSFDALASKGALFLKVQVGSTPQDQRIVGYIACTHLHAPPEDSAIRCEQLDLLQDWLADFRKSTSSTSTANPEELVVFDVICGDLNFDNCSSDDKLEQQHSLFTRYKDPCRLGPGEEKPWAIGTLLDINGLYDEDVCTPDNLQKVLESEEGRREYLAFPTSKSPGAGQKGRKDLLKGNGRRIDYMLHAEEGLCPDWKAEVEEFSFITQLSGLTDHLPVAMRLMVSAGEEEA

Structure (SMILES)	Expression of SMPD3 in cultured hepatocytes on palmitate exposure (SMPD3)	Inflammatory effect (IL-6 mRNA expression) in BMDMs of exosomes from hepatocytes treated with palmitate [1]	Effect on RNA loading onto exosomes [2]	Effect on exosome secretion [2]	IC50 (N-SMase)
CCCCCCCCCCCCCCCC(=O)O [palmitate]	induced	increase expression of IL-6 mRNA in BMDMs; also recorded: caused higher inflammatory responses in primary murine macrophages	–	–	–
Cl.Cl.O=C(/C=C/c1ccc(/C=C/C(=O)Nc2ccc(C3=NCCN3)cc2)cc1)Nc1ccc(C2=NCCN2)cc1 [GW4869]	–	–	inhibit	inhibit	1 µM

Reference: patent US20200199575A1, “ROLE OF EXOSOMES, EXTRACELLULAR VESICLES, IN THE REGULATION OF METABOLIC HOMEOSTASIS” (CHILDREN'S HOSPITAL MEDICAL CENTER, priority 2017, published 2020)
